For this assay, the system named is Factor VII. The assay is described as follows: In vivo Factor VII silencing assay, serum Factor VII by chromogenic kit. More on the design: species or system C57BL/6 mice. The settings on record: 2 mg/kg siRNA; FIG. 1; suggested, 5 tail and/or 6 tail, most abundant species in ND98 6:1 preparation. Here is the method: Applicants have discovered that certain polyamine lipid moieties provide desirable properties for administration of nucleic acids, such as siRNA. For example, in some embodiments, a lipid moiety is complexed with a Factor VII-targeting siRNA and administered to an animal such as a mouse. The level of secreted serum Factor VII is then quantified (24 h post administration), where the degree of Factor VII silencing indicates the degree of in vivo siRNA delivery. Accordingly, lipids providing enhanced in vivo delivery of a nucleic acid such as siRNA are preferred. In particular, Applicants have discovered polyamines having substitutions described herein can have desirable properties for delivering siRNA, such as bioavailability, biodegradability, and tolerability.
C57BL/6 mice received tail vein injections of saline or various lipid formulations. Lipid-formulated siRNAs are administered at varying doses in an injection volume of 10 μL/g animal body weight. Twenty-four hours after administration, serum samples are collected by retroorbital bleed. Serum Factor VII concentrations are determined using a chromogenic diagnostic kit (Coaset Factor VII Assay Kit, DiaPharma) according to manufacturer protocols.
The effectiveness of lipid compositions can be tested by determining the relative ability of a lipid to deliver an siRNA moiety to a target. […]

On to `CCCCCCCCCCCCNC(=O)CCN(CCC(=O)NCCCCCCCCCCCC)CCN(CCC(=O)NCCCCCCCCCCCC)CCN(CCC(=O)NCCCCCCCCCCCC)CCN(CCC(=O)NCCCCCCCCCCCC)CCC(=O)NCCCCCCCCCCCC` [Compound 5], for which the “FVII silencing, active lipid species” value is “active species”.

The values are drawn from patent publication US9663449B2, “Lipid containing formulations” (ARBUTUS BIOPHARMA CORPORATION, priority 2006, dated 2017).
